# How the values were obtained:
# [1] = test system: chronic viral hepatitis B (HBV); assay: Patients with chronic viral hepatitis B; assay type: in vivo, human
# Experimental: Previous treatment: from 17 Sep. 1997 the patient was administered with acyclovir during 21 days.
# [2] = test system: mice irradiated in a dose of 1 Gy; conditions: 5 mg/kg intraperitoneally daily for seven days, 8th day
# Excerpt: The study was designed to evaluate efficacy of seven-day daily administration of the test articles (with the dosing started two hours post-exposure) on the capability of the splenocytes from mice exposed to radiation to produce interleukin-1 (IL-1 α,b); interleukin-2 (IL-2); interleukin-3 (IL-3); interleukin-4 (IL-4); interleukin-6 (IL-6), interleukin-8 (IL-8); interleukin-10 (IL-10); interleukin-12 (IL-12); tumor necrosis factor-α, g (TNF-α, g), interferon-α, g (IFN-α,) and G-CSF, M-CSF, GM-CSF in vitro. In addition, the blood leukocyte and lymphocyte counts and the spleen and bone marrow cellularity (karyocyte count), as we well as splenic and medullary colony-stimulating capacity, were determined at the 8th day post-exposure.
# Male CBA mice (18 to 20 g body weight) were irradiated with single dose of 180 kV X-rays filtered with 0.5 mm Cu (at 15 mA, distance—70 cm, duration two min. and 28 sec.). The total absorbed dose comprised approximately 1 Gy. […]
# Additionally, hemopoietic colony-formation ability of spleen and bone marrow cells was assessed by the method of colony-forming unit (CFU) direct count in the spleens of irradiated singenic CBA mice receiving intravenously spleen or bone marrow cells obtained from animals of control or test groups.
# [3] = test system: glutathione reductase, glutathione-peroxidase, glutathione-S-transferase, γ-glutamyl-transpeptidase; conditions: intravenous, 2 mg/kg
# Experimental: In addition, the activity variation of the enzymes participating in GSSG metabolism was evaluated (glutathione reductase, glutathione-peroxidase, glutathione-S-transferase,γ-glutamyl-transpeptidase).
# Activity of the enzymes participating in the GSSG metabolism (glutathione reductase: EC. 1.6.4.2; glutathione-peroxidase: EC. 1.11.1.9; glutathione-S-transferase: EC.2.5.1.18; g-glutamyl-transpeptidase: EC.2.3.2.2) were determined by the standard reagent kits produced by Boehringer Mannheim GmbH.
# [4] = test system: HL-60 myeloid line cells; assay: Growth and apoptotic DNA degradation, HL-60 cells; conditions: 100 mg/mL
# Experimental: The HL-60 myeloid line cells were grown in RPMI-1640 medium with addition of 10% fetal calf serum. Cultivation was carried out in closed flasks, the medium volume was 12 mL, it was replaced every four days.
# (§1) The effect testing for the testing articles was performed 24, 48 hours after addition into the culture.
# The analysis procedure involved the following: after 24-48 hour incubation there were calculated the total cell count and the dead cell count by the Trypan blue exclusion method; afterwards the cell suspension was centrifuged (at 12.000 g, in Eppendorf test-tubes during 10 min).
# The HL-60 cell culture is human cells of myeloluekosis origin defective in the p53 gene.
# [5] = test system: stomach cancer; assay: Patient with stomach cancer, peritoneal metastases, ascites, splenomegaly and cholestatic hepatitis
# Experimental: A patient was diagnosed as having stomach neoplasm for more than two years (adenocarcinoma of moderate differentiation degree).
# A decision was taken to apply GSSG drug form. The drug was injected parenterally (intramuscularly and intravenously), and additionally, the drug form was used via local injections around the tumor tissue through an endoscope. An average doses which were used for intramuscular and intravenous injections—0.1-0.5 mg/kg, and for local injections—up to 50 mg in situ. Parenteral injections of the drug were applied every other day, b.i.d. (intravenous injections at the morning, and intramuscular ones at the evening), during three weeks, and after that, two times a week during four weeks. The drug introduction through the endoscope was performed once in seven days.
# The tumor was solid-like type. Stomach walls were rigid. Histology examination defined the tumor as a moderate degree differentiation adenocarcinoma. […] The drug was introduced according to the identical regime: parenterally (intramuscularly and intravenously), and additionally, the drug form was introduced via local injections around the tumor tissue through an endoscope. An average doses which were used for intramuscular and intravenous injections—0.1-0.5 mg/kg, and for local injections—up to 50 mg in situ. Parenteral injections of the drug were applied every other day, b.i.d. (intravenous injections at the morning, and intramuscular ones at the evening), during three weeks, and after that, two times in a week during four weeks. The drug introduction through the endoscope was performed once in seven days.
# [6] = test system: normal human lymphocytes; assay: Growth and apoptotic DNA degradation, normal human lymphocytes; conditions: 100 mg/mL, 24, 48 hours
# Experimental: Venous blood of healthy volunteers was collected into heparinized test-tubes, which had been tested for endotoxin. A mononuclear fraction of blood leukocytes was obtained by centrifugation in ficoll-metrizoat gradient (Histopaque, Sigma). Cell concentration was adjusted to 2×10^6 cells per 1 ml of cell culture medium (RPMI 1640), containing 20 mM HEPES, 2 mM glutamine, 50 mg/mL gentamicin and 10% fetal calf serum. Cell viability was estimated by the Trypan blue exclusion method, then the cell suspension was placed into wells of 24- and 96-well microliter plates—250,000 cells per well.
# as §1
# The analysis procedure involved the following: after 24-48 hour incubation there were calculated the total cell count and the dead cell count by the Trypan blue exclusion method; afterwards the cell suspension was centrifuged (at 12.000 g, in Eppendorf test-tubes during 10 min). The cell pellet was frozen and kept at −70° C. before the DNA separation. The DNA separation was conducted by Kirbi-Georgiyev phenol method. […] Then it was diluted in 10 mL of the A buffer; the DNA amount was determined by Dishe method and electrophoresis was performed in 2% agarose gel (agarose with NA grade made by “Pharmacia LKB, Biotechnology Inc” (Austria) was used). […]
# [7] = test system: CP-treated mice; assay: Cyclophosphamide-induced hemo- and immunodepression, murine model; conditions: CP 50 mg/kg; 5 mg/kg intraperitoneally daily for five days; day 8
# Excerpt: The study was designed to evaluate the effect of a five-day long administration of the test articles on the capability of the CP-treated murine splenocytes to produce interleukin-1 (IL-1 α,b); interleukin-2 (IL-2); interleukin-3 (IL-3); interleukin-4 (IL-4); interleukin-6 (IL-6), interleukin-8 (IL-8); interleukin-10 (IL-10); interleukin-12 (IL-12); tumor necrosis factor-α, g (TNF-α, g), interferon-α, g (IFN-α, g) and G-CSF, M-CSF, GM-CSF in vitro. In addition, the blood leukocyte and lymphocyte count and the bone marrow cellularity (karyocyte count) were determined at eight days after CP administration. Some animals receiving CP were then challenged with sheep red blood cells (SRBC), and the humoral immune response to the antigen was evaluated.
# Male CBA mice (180 to 200 g body weight) were given a single introperitoneal injection of CP in a dose of 50 mg/kg. Four groups of animals (with no less than 15 mice in each) were formed.
# #3—animals receiving a single CP injection, which further were treated with the test article (GSSG dissolved in normal saline) in a dose of 5 mg/kg;
# Twenty-four hours after the CP injection, five animals in each group were immunized with SRBC (10^7 cells in 0.5 mL of NS, intra-peritoneally).
# Injections were performed during five days: once a day, daily. […]
# [8] = test system: human peripheral blood mononuclear leukocytes; conditions: 0.5-5000 mg/mL, ConA, 24 hours
# Experimental: Oxidized glutathione (GSSG) as well as a structural analog thereof, which is a hexapeptide with a stabilized disulfide bond, were evaluated for their effect on cytokine production by human peripheral blood mononuclear leukocytes in vitro.
# The leukocytic cytokine production was triggered by adding a mitogen, concanavalin A (ConA) to the cell culture immediately after introducing the test substances. In 24 hours of the cellular exposure to ConA and the test articles, the culture supernatants were sampled and stored until cytokine determination at −70° C. […]
# Each concentration was established in no less than six wells by adding 50 mL of medium containing the appropriate quantity of the previously dissolved test articles. […]
# Immediately after the test articles had been introduced into the cultures, 50 mL of medium containing ConA (Sigma, cell culture tested) in a quantity required for a final concentration of 4.0 mg/mL, was added to all the wells excepting three additional ones which served for evaluation of spontaneous ^3H-thymidine uptake (without ConA). […]
# The filters were dried and their radioactivity (counts per minute, cpm) was determined using liquid scintillation counter, Betaplate 1205 (LKB). […]
# [9] = patient No. 4, previous treatment during 21 days
# [10] = two months after treatment start
Compound,"ALT after the course completion [1, 9] [mmol/h/L]","Hbs Ag degree [1, 9]","bilirubin after the course completion [1, 9] [mmoVL]",cytokine and hemopoietic factor production by splenocytes [2],activity of the enzymes participating in the thiol (glutathione) metabolism [3],DNA electrophoresis (apoptotic ladder) ([4]; 24 and 48 hours),high molecular DNA in the apoptotic ladder ([4]; FIG. 14),dead HL-60 cell quantity ([4]; Trypan blue exclusion),tumor size decrease ([5]; fibrogastrocopy data) [%],"hematology and blood chemistry indices [5, 10]","liver protrusion below the costal arch [5, 10] [cm]","tumor extent at fibrogastroscopy ([5]; two months after treatment start, before: about 8 cm (GSSG course), about 6 cm (GSSG.Pt course)) [cm]",normal cell proliferation [6],cytokine and hemopoietic factor production by splenocytes [7],"liver protrusion beyond the costal arch after the treatment course ([1]; patient No. 3 (GSSG, before 2 cm), patient No. 4 (GSSG.Pt, before 2.5 cm)) [cm]",cytokine production by human mononuclear leukocytes [8]
Nc1nc2c(ncn2COCCO)c(=O)[nH]1 [acyclovir],2.1,did not change,32,,,,,,,,,,,,,
bis-(γ-L-glutamyl)-L-cysteinyl-bis-glycine [GSSG],,,,less significant effect,increases approximately two times the activity,revealed the DNA oligonucleosomic degradation,contained considerable amount of the high molecular DNA,reliably lower than the one after the GSSG.Pt effect,40,substantial improvement of hematology and blood chemistry indices,3,4.8,stimulated the normal cell proliferation,only exiguous stimulating effect,0.5,statistically significant and dose-dependent stimulation of the cytokine production

# Reference: patent US7371411B2, “Methods for production of the oxidized glutathione composite with CIS-diamminedichloroplatinum and pharmaceutical compositions based thereof regulating metabolism, proliferation, differentiation and apoptotic mechanisms for normal and transformed cells” (Novelos Therapeutics, Inc., priority 1998, dated 2008)
